Target: T1, dopamine transporter (Rattus norvegicus, UniProt P23977)
T1 construct: Synaptosomes were prepared by homogenizing fresh tissue in 20 volumes of ice-cold 0.32 M sucrose; from tissue; host or cells: striatal (caudate nucleus) synaptosomes from fresh brain tissue
Experiment: Test B: uptake of [3H]dopamine and [3H]serotonin into striatal synaptosomes
Assay type: biochemical
Settings: dopamine vs serotonin transporter
Protocol: Uptake of [^3H]dopamine and [^3H]serotonin was carried out using synaptosomes from the same brain regions as described above for binding assays. A Krebs phosphate buffer, pH 7.4, containing 1 μM pargyline, dextrose (1.9 mg/ml), and ascorbic acid (0.2 mg/ml) was used. Synaptosomes were prepared by homogenizing fresh tissue in 20 volumes of ice-cold 0.32 M sucrose using a glass-teflon homogenizer. Nuclei and large tissue fragments were removed by centrifugation at 800×g for 10 minutes. The supernatant was centrifuged at 20,000×g for 15 minutes to collect synaptosomes in a pellet. The pellet was resuspended in 0.32 M sucrose at a concentration of 15, 100 or 10 mg/ml original wet weight, and diluted 10 fold in the assay tubes. The final assay volume was 1.0 ml and the duration of incubation at 30° C. was 3 minutes so that uptake was inear with time in contrast to binding assays where binding had reached equilibrium.
Ki values were determined using serial dilutions of the analogues. A thirty minute preincubation of the analogues with the tissue was utilized before uptake was initiated by adding tritiated substrate. The preincubation was utilized to allow analogue and transporters to reach an equilibrium so that kinetic effects were not a significant factor. Ki values were determined using standard techniques.

T1 sequence (P23977 whole entry): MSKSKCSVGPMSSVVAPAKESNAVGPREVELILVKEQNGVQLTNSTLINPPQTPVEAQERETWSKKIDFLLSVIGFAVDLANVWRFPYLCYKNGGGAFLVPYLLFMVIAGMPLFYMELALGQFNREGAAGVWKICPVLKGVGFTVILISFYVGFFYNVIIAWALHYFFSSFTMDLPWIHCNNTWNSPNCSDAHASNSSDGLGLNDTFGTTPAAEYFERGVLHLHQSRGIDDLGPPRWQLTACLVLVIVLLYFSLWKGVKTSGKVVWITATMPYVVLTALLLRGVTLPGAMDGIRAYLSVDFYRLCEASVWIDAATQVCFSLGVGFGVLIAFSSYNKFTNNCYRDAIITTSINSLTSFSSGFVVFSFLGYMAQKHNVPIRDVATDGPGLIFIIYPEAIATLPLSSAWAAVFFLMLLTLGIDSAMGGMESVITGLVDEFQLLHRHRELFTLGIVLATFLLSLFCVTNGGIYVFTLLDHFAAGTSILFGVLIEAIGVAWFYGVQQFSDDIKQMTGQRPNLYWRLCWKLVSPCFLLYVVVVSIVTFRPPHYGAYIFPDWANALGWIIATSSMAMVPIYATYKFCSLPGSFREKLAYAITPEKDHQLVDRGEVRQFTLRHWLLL

SMILES | selectivity for the dopamine transporter relative to the serotonin transporter
Cc1ccc([C@@H]2C[C@@H]3CC[C@H]([C@H]2c2ccccc2)N3C)cc1 [compound 37, (1R, 5S)-2β-Phenyl-3α-(p-tolyl)tropane] | highly selective
CN1[C@H]2CC[C@@H]1[C@@H](c1ccccc1)[C@H](c1ccccc1)C2 [compound 49, (1R,5S)-2β-Phenyl-3α-phenyltropane] | highly selective
